Source: ChEMBL document CHEMBL1201862, “PubChem BioAssay data set” (2004)
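Dose response: 5 concentrations. Exposure: 48 h. Format: 96-well plates. Endpoint: linear interpolation; highest concentration if not reached. GI50 is the concentration that inhibits growth by half.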 Calls of active or inactive are those of the source. Cut-off read from the data, not from the text of the source: active = GI50 up to about 1.1 µM and inactive = higher.

How the values were obtained:
Experiment in all cases: DTP human tumour cell line panel, 48 h
BT-549 = tested on: BT-549
EKVX = tested on: EKVX
HOP-62 = tested on: HOP-62
M14 = tested on: M14
MDA-MB-231 = tested on: MDA-MB-231
Malme-3M = tested on: Malme-3M
NCI-H23 = tested on: NCI-H23
OVCAR-4 = tested on: OVCAR-4
OVCAR-8 = tested on: OVCAR-8
PC-3 = tested on: PC-3
RXF 393 = tested on: RXF 393
SK-MEL-5 = tested on: SK-MEL-5
SK-OV-3 = tested on: SK-OV-3
T47D = tested on: T47D
UACC-257 = tested on: UACC-257
UACC-62 = tested on: UACC-62
SK-MEL-2 = tested on: SK-MEL-2
SW-620 = tested on: SW-620
A498 = tested on: A498
HOP-92 = tested on: HOP-92

Compound	GI50 (BT-549)	GI50 (EKVX)	GI50 (HOP-62)	GI50 (M14)	GI50 (MDA-MB-231)	GI50 (Malme-3M)	GI50 (NCI-H23)	GI50 (OVCAR-4)	GI50 (OVCAR-8)	GI50 (PC-3)	GI50 (RXF 393)	GI50 (SK-MEL-5)	GI50 (SK-OV-3)	GI50 (T47D)	GI50 (UACC-257)	GI50 (UACC-62)	GI50 (SK-MEL-2)	GI50 (SW-620)	GI50 (A498)	GI50 (HOP-92)
COc1ccc(C2Oc3ccc(Cl)cc3C=C2[N+](=O)[O-])cc1 (stereo not drawn)	> 100 µM (inactive)	> 100 µM (inactive)	> 100 µM (inactive)	> 100 µM (inactive)	> 100 µM (inactive)	> 100 µM (inactive)	> 100 µM (inactive)	> 100 µM (inactive)	> 100 µM (inactive)	> 100 µM (inactive)	> 100 µM (inactive)	> 100 µM (inactive)	> 100 µM (inactive)	> 100 µM (inactive)	> 100 µM (inactive)	> 100 µM (inactive)	–	–	–	–
CC(=O)C(C)(C)CCC(C)(C)C(C)=O	> 100 µM (inactive)	> 100 µM (inactive)	> 100 µM (inactive)	> 100 µM (inactive)	> 100 µM (inactive)	> 100 µM (inactive)	> 100 µM (inactive)	> 100 µM (inactive)	> 100 µM (inactive)	> 100 µM (inactive)	< 0.01 µM (active)	> 100 µM (inactive)	> 100 µM (inactive)	> 100 µM (inactive)	> 100 µM (inactive)	> 100 µM (inactive)	> 100 µM (inactive)	> 100 µM (inactive)	–	–
CN(C)c1ccc(/C=N/c2ccc(-c3nc4ccccc4s3)cc2)cc1	35.4 µM (inactive)	24.6 µM (inactive)	24.5 µM (inactive)	41.1 µM (inactive)	–	31.6 µM (inactive)	29.9 µM (inactive)	58.7 µM (inactive)	39.5 µM (inactive)	22.4 µM (inactive)	17.9 µM (inactive)	19.3 µM (inactive)	36.8 µM (inactive)	20 µM (inactive)	28 µM (inactive)	8.59 µM (inactive)	22.9 µM (inactive)	22.9 µM (inactive)	10.2 µM (inactive)	22.4 µM (inactive)
CN(CCCNC(=O)c1cn(C)c2c1Cc1ccccc1-2)CCCNC(=O)c1cn(C)c2c1Cc1ccccc1-2	17.1 µM (inactive)	9.4 µM (inactive)	12.9 µM (inactive)	3.81 µM (inactive)	13.6 µM (inactive)	11.7 µM (inactive)	14.2 µM (inactive)	12.8 µM (inactive)	5.86 µM (inactive)	10.8 µM (inactive)	16.8 µM (inactive)	14.2 µM (inactive)	16.5 µM (inactive)	–	6.12 µM (inactive)	13.8 µM (inactive)	16.7 µM (inactive)	3.66 µM (inactive)	11.9 µM (inactive)	2.13 µM (inactive)
CCCC(CCC(N)=O)(CCC(N)=O)[N+](=O)[O-]	> 100 µM (inactive)	> 100 µM (inactive)	–	> 100 µM (inactive)	> 100 µM (inactive)	> 100 µM (inactive)	> 100 µM (inactive)	–	> 100 µM (inactive)	> 100 µM (inactive)	69.3 µM (inactive)	> 100 µM (inactive)	> 100 µM (inactive)	> 100 µM (inactive)	> 100 µM (inactive)	> 100 µM (inactive)	> 100 µM (inactive)	> 100 µM (inactive)	–	> 100 µM (inactive)
Cc1ccc(S(=O)(=O)N2CC(CCN)c3ccccc32)cc1 (stereo not drawn)	5.69 µM (inactive)	13 µM (inactive)	6.78 µM (inactive)	2.29 µM (inactive)	4.1 µM (inactive)	4 µM (inactive)	6.38 µM (inactive)	17.5 µM (inactive)	3.59 µM (inactive)	3.64 µM (inactive)	2.74 µM (inactive)	2.58 µM (inactive)	5.5 µM (inactive)	–	4.78 µM (inactive)	3.68 µM (inactive)	4.28 µM (inactive)	4.34 µM (inactive)	10.7 µM (inactive)	4.19 µM (inactive)
CCOP(=O)(OCC)/C(C#N)=C/c1cnc(C)[nH]1	> 100 µM (inactive)	> 100 µM (inactive)	> 100 µM (inactive)	> 100 µM (inactive)	> 100 µM (inactive)	> 100 µM (inactive)	> 100 µM (inactive)	> 100 µM (inactive)	> 100 µM (inactive)	> 100 µM (inactive)	> 100 µM (inactive)	> 100 µM (inactive)	20.5 µM (inactive)	–	> 100 µM (inactive)	> 100 µM (inactive)	> 100 µM (inactive)	> 100 µM (inactive)	> 100 µM (inactive)	> 100 µM (inactive)
COc1ccc2c(c1)C(=O)[C@@](Nc1ccc(C=O)cc1)(OC)[C@@](OC)(c1ccc([N+](=O)[O-])cc1)O2	> 10 µM (inactive)	> 10 µM (inactive)	> 10 µM (inactive)	> 10 µM (inactive)	> 10 µM (inactive)	> 10 µM (inactive)	> 10 µM (inactive)	> 10 µM (inactive)	> 10 µM (inactive)	8.53 µM (inactive)	> 10 µM (inactive)	> 10 µM (inactive)	> 10 µM (inactive)	5.96 µM (inactive)	> 10 µM (inactive)	> 10 µM (inactive)	> 10 µM (inactive)	> 10 µM (inactive)	> 10 µM (inactive)	–
CCCc1n[nH]c(=O)n1N1C(=O)C=CC1=O	30.5 µM (inactive)	> 100 µM (inactive)	> 100 µM (inactive)	> 100 µM (inactive)	> 100 µM (inactive)	> 100 µM (inactive)	> 100 µM (inactive)	> 100 µM (inactive)	–	> 100 µM (inactive)	> 100 µM (inactive)	> 100 µM (inactive)	> 100 µM (inactive)	> 100 µM (inactive)	> 100 µM (inactive)	> 100 µM (inactive)	> 100 µM (inactive)	–	> 100 µM (inactive)	–
COc1ccc(/C=c2\c(=O)[nH]c3nc4ccccc4c(=O)n23)cc1	27.3 µM (inactive)	54.1 µM (inactive)	> 100 µM (inactive)	75.2 µM (inactive)	> 100 µM (inactive)	58.5 µM (inactive)	73.8 µM (inactive)	> 100 µM (inactive)	> 100 µM (inactive)	> 100 µM (inactive)	46.1 µM (inactive)	73.6 µM (inactive)	> 100 µM (inactive)	36.5 µM (inactive)	88.9 µM (inactive)	42 µM (inactive)	> 100 µM (inactive)	36.1 µM (inactive)	–	64.7 µM (inactive)
COCc1nc2c(OC)c(-c3nc4ccc(N5CCN(C)CC5)nc4[nH]3)cc(OC)c2n1C	43.7 µM (inactive)	21 µM (inactive)	42.3 µM (inactive)	21.3 µM (inactive)	17.7 µM (inactive)	19.4 µM (inactive)	58.3 µM (inactive)	34 µM (inactive)	33.9 µM (inactive)	21.2 µM (inactive)	20.3 µM (inactive)	–	66.5 µM (inactive)	38.6 µM (inactive)	17.9 µM (inactive)	20.7 µM (inactive)	22 µM (inactive)	28.6 µM (inactive)	–	> 100 µM (inactive)
Nc1c(C(=O)c2ccc(Cl)c(Cl)c2)[nH]c(NCc2ccccc2)c1C(=S)Nc1ccccc1	15.8 µM (inactive)	14.7 µM (inactive)	17.3 µM (inactive)	3.56 µM (inactive)	4.73 µM (inactive)	3.13 µM (inactive)	18.2 µM (inactive)	3.81 µM (inactive)	14.7 µM (inactive)	13.8 µM (inactive)	10.4 µM (inactive)	–	17.2 µM (inactive)	16.5 µM (inactive)	13.8 µM (inactive)	14.3 µM (inactive)	12.4 µM (inactive)	3.22 µM (inactive)	15.3 µM (inactive)	–
CSc1nc(=O)cnn1C	> 100 µM (inactive)	> 100 µM (inactive)	> 100 µM (inactive)	> 100 µM (inactive)	> 100 µM (inactive)	> 100 µM (inactive)	> 100 µM (inactive)	> 100 µM (inactive)	> 100 µM (inactive)	> 100 µM (inactive)	> 100 µM (inactive)	> 100 µM (inactive)	> 100 µM (inactive)	> 100 µM (inactive)	> 100 µM (inactive)	> 100 µM (inactive)	> 100 µM (inactive)	> 100 µM (inactive)	–	–
COC(=O)/N=[N+](\[O-])C(c1ccc(Cl)cc1)c1ccc(Cl)cc1	53.8 µM (inactive)	25.2 µM (inactive)	–	31.3 µM (inactive)	1.75 µM (inactive)	51.9 µM (inactive)	32 µM (inactive)	42.6 µM (inactive)	36.3 µM (inactive)	27.2 µM (inactive)	27.2 µM (inactive)	24.7 µM (inactive)	83.6 µM (inactive)	20.8 µM (inactive)	34.6 µM (inactive)	36.4 µM (inactive)	34.1 µM (inactive)	48.6 µM (inactive)	31.8 µM (inactive)	–
CC(=O)Nc1ccc(/N=N\c2c(O)c(S(=O)(=O)O)cc3cc(S(=O)(=O)O)ccc23)cc1	> 100 µM (inactive)	> 100 µM (inactive)	> 100 µM (inactive)	> 100 µM (inactive)	> 100 µM (inactive)	> 100 µM (inactive)	> 100 µM (inactive)	> 100 µM (inactive)	> 100 µM (inactive)	> 100 µM (inactive)	> 100 µM (inactive)	> 100 µM (inactive)	> 100 µM (inactive)	> 100 µM (inactive)	> 100 µM (inactive)	> 100 µM (inactive)	> 100 µM (inactive)	> 100 µM (inactive)	–	> 100 µM (inactive)
